Experimental data as given in US20100256357A1, “HETEROCYCLES USEFUL AS INHIBITORS OF CARBONIC ANHYDRASE” (Agouron Pharmaceuticals, Inc., priority 2006, published 2010).
Blank lines part the entries; values can stand above or below the molecule they belong to.

Tests used:
[1] = target: T1, human CA-II (Homo sapiens, UniProt P00918); test: Carbonic Anhydrase-II (CA-II) Fluorimetric Assay-IC50 Determination; assay type: biochemical; conditions: read-out: CAII % Inh @ Min dose; for inhibition at 0.1 µM: CA II Min dose 100 nM; for inhibition at 0.01 µM: CA II Min dose 10 nM
T1 construct: purchased Sigma-Aldrich C6165
How it was run: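 Enzyme activity is read fluorimetrically at 25° C (ex 488 nm / em 538 nm) as the rate at which human CA-II hydrolyses fluorescein diacetate. The buffer is Tris/HCl (50 mM, pH 7.6) with 100 mM Na2SO4 and 0.005% Tween-20. Inhibitors run in duplicate over 11 threefold dilutions, […]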

[2] = target: T1, human CA-II; test: Carbonic Anhydrase-II (CA-II) Fluorescence Polarization Tight Binding Assay-Kd Determination; conditions: for Kd: read-out: CA-II Kd; for inhibition at 0.0025 µM: inhibitor concentration 2.5 nM
Protocol: Assays were conducted in a final volume of 100 μL in 50 mM Tris/HCl (pH 7.6), 100 mM Na2SO4 and 0.005% Tween-20 in a 96-well black assay plate. […] The assay plate was
The Kd binding was calculated using GraphPad Prism and Morrison tight binding ligand equation.

[3] = target: T2, human CA-IV (Homo sapiens, UniProt P22748); test: Carbonic Anhydrase-IV (CA-IV) Fluorescence Polarization Assay-IC50 Determination; assay type: binding; conditions: for inhibition at 0.2 µM: CA-IV Min dose 200 nM, read-out: CA-IV: % Inh @ Min dose; for IC50: read-out: CA-IV IC50
T2 construct: made in house; host or cells: Escherichia coli BL21(DE3)
How it was run: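 IC50 values come from a fluorescence polarization read-out. The CA-IV protein was zinc-supplemented during expression and purified by cation exchange then gel filtration, ending in 25 mM Tris-HCl pH 7.0 with 100 mM NaCl at 7.0 mg/mL.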

T2 sequence (P22748 19-284 limits assumed): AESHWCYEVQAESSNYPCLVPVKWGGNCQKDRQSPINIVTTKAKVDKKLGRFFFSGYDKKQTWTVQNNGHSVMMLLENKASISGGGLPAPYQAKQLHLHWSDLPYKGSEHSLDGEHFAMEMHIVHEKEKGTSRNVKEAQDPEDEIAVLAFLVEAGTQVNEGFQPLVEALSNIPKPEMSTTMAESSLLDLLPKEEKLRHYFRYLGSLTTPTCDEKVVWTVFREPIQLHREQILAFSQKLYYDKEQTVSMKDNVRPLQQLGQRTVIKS

SMILES: CCCCCN(C)C(=O)c1nc(Cc2ccccc2)n(-c2ccc(S(N)(=O)=O)cc2)n1 [Example R-1, 1-[4-(aminosulfonyl)phenyl]-5-benzyl-N-methyl-N-pentyl-1H-124-triazole-3-carboxamide]
- inhibition at 0.1 µM [1]: 100%
- Kd [2]: 0.56 nM
- inhibition at 0.2 µM [3]: 68.6%
- IC50 [3]: 86 nM

SMILES: NS(=O)(=O)c1ccc(-n2nc(C(=O)N(CCO)Cc3ccccc3)nc2Cc2ccccc2)cc1 [Example R-2, 1-[4-(aminosulfonyl)phenyl]-N5-dibenzyl-N-(2-hydroxyethyl)-1H-124-triazole-3-carboxamide]
- inhibition at 0.01 µM [1]: 87%
- Kd [2]: 0.621 nM
- inhibition at 0.2 µM [3]: 57.7%
- IC50 [3]: 87 nM

SMILES: CC1(C)COCN1C(=O)c1nc(Cc2ccccc2)n(-c2ccc(S(N)(=O)=O)cc2)n1 [Example R-6, 4-(5-benzyl-3-[(44-dimethyl-13-oxazolidin-3-yl)carbonyl]-1H-124-triazol-1-yl)benzenesulfonamide]
- inhibition at 0.01 µM [1]: 97%
- Kd [2]: 0.325 nM
- inhibition at 0.2 µM [3]: 58.2%
- IC50 [3]: 180 nM

SMILES: NS(=O)(=O)c1ccc(-n2nc(C(=O)NCC3CCCCC3)nc2Cc2ccccc2)cc1 [Example R-17, 1-[4-(aminosulfonyl)phenyl]-5-benzyl-N-(cyclohexylmethyl)-1H-124-triazole-3-carboxamide]
- inhibition at 0.1 µM [1]: 101%
- Kd [2]: 0.067 nM
- inhibition at 0.2 µM [3]: 56.9%
- IC50 [3]: 242 nM

SMILES: NS(=O)(=O)c1ccc(-n2nc(CNCCc3ccccc3F)nc2Cc2ccccc2)c(F)c1 [Example T-58, 4-[5-benzyl-3-({[2-(2-fluorophenyl)ethyl]amino}methyl)-1H-124-triazol-1-yl]-3-fluorobenzenesulfonamide]
- inhibition at 0.0025 µM [2]: 51%

SMILES: NS(=O)(=O)c1ccc(-n2nc(CNCc3cc(F)ccc3F)nc2Cc2ccccc2)c(F)c1 [Example T-60, 4-(5-benzyl-3-{[(25-difluorobenzyl)amino]methyl}-1H-124-triazol-1-yl)-3-fluorobenzenesulfonamide]
- inhibition at 0.0025 µM [2]: 57%

SMILES: Cc1cccc(CCNCc2nc(Cc3ccccc3)n(-c3ccc(S(N)(=O)=O)cc3F)n2)c1 [Example T-66, 4-[5-benzyl-3-({[2-(3-methylphenyl)ethyl]amino}methyl)-1H-124-triazol-1-yl]-3-fluorobenzenesulfonamide]
- inhibition at 0.0025 µM [2]: 52%

SMILES: Cc1ccn(CCNCc2nc(Cc3ccccc3)n(-c3ccc(S(N)(=O)=O)cc3F)n2)n1 [Example T-68, 4-[5-benzyl-3-({[2-(3-methyl-1H-pyrazol-1-yl)ethyl]amino}methyl)-1H-124-triazol-1-yl]-3-fluorobenzenesulfonamide]
- inhibition at 0.0025 µM [2]: 55%

SMILES: CCC(COC)NCc1nc(Cc2ccccc2)n(-c2ccc(S(N)(=O)=O)cc2F)n1 (stereo not drawn) [Example T-70, 4-[5-benzyl-3-({[1-(methoxymethyl)propyl]amino}methyl)-1H-124-triazol-1-yl]-3-fluorobenzenesulfonamide]
- inhibition at 0.0025 µM [2]: 89%

SMILES: COC[C@H]1CCC[C@H]1NCc1nc(Cc2ccccc2)n(-c2ccc(S(N)(=O)=O)cc2F)n1 [Example T-71, 4-[5-benzyl-3-({[(1R2S)-2-(methoxymethyl)cyclopentyl]amino}methyl)-1H-124-triazol-1-yl]-3-fluorobenzenesulfonamide]
- inhibition at 0.0025 µM [2]: 47%

SMILES: COc1cccc(CCNCc2nc(Cc3ccccc3)n(-c3ccc(S(N)(=O)=O)cc3F)n2)c1 [Example T-73, 4-[5-benzyl-3-({[2-(3-methoxyphenyl)ethyl]amino}methyl)-1H-124-triazol-1-yl]-3-fluorobenzenesulfonamide]
- inhibition at 0.0025 µM [2]: 50%

SMILES: NS(=O)(=O)c1ccc(-n2nc(CNC3Cc4ccccc4C3)nc2Cc2ccccc2)c(F)c1 [Example T-76, 4-{5-benzyl-3-[(23-dihydro-1H-inden-2-ylamino)methyl]-1H-124-triazol-1-yl}-3-fluorobenzenesulfonamide]
- inhibition at 0.0025 µM [2]: 41%

SMILES: CC(C)OCCNCc1nc(Cc2ccccc2)n(-c2ccc(S(N)(=O)=O)cc2F)n1 [Example T-79, 4-(5-benzyl-3-{[(2-isopropoxyethyl)amino]methyl}-1H-124-triazol-1-yl)-3-fluorobenzenesulfonamide]
- inhibition at 0.0025 µM [2]: 44%

Continued, values first:

- inhibition at 0.1 µM [1]: 101%
- Kd [2]: 0.451 nM
- inhibition at 0.2 µM [3]: 66.4%
- IC50 [3]: 88 nM
SMILES: CCCCN(C)C(=O)c1nc(Cc2ccccc2)n(-c2ccc(S(N)(=O)=O)cc2)n1 [Example R-3, 1-[4-(aminosulfonyl)phenyl]-5-benzyl-N-butyl-N-methyl-1H-124-triazole-3-carboxamide]

- inhibition at 0.1 µM [1]: 99%
- Kd [2]: 0.091 nM
- inhibition at 0.2 µM [3]: 64.7%
- IC50 [3]: 202 nM
SMILES: NS(=O)(=O)c1ccc(-n2nc(C(=O)NCc3n[nH]c4c3CCC4)nc2Cc2ccccc2)cc1 [Example R-11, 1-[4-(aminosulfonyl)phenyl]-5-benzyl-N-(1456-tetrahydrocyclopenta[c]pyrazol-3-ylmethyl)-1H-124-triazole-3-carboxamide]

- inhibition at 0.1 µM [1]: 100%
- Kd [2]: 0.644 nM
- inhibition at 0.2 µM [3]: 63.6%
- IC50 [3]: 208 nM
SMILES: N#CCCN(C(=O)c1nc(Cc2ccccc2)n(-c2ccc(S(N)(=O)=O)cc2)n1)C1CC1 [Example R-13, 1-[4-(aminosulfonyl)phenyl]-5-benzyl-N-(2-cyanoethyl)-N-cyclopropyl-1H-124-triazole-3-carboxamide]

- inhibition at 0.0025 µM [2]: 53%
SMILES: CC(C)CCNCc1nc(Cc2ccccc2)n(-c2ccc(S(N)(=O)=O)cc2F)n1 [Example T-59, 4-(5-benzyl-3-{[(3-methylbutyl)amino]methyl}-1H-124-triazol-1-yl)-3-fluorobenzenesulfonamide]

- inhibition at 0.0025 µM [2]: 40%
SMILES: NS(=O)(=O)c1ccc(-n2nc(CNCCc3ccccc3)nc2Cc2ccccc2)c(F)c1 [Example T-61, 4-(5-benzyl-3-{[(2-phenylethyl)amino]methyl}-1H-124-triazol-1-yl)-3-fluorobenzenesulfonamide]

- inhibition at 0.0025 µM [2]: 51%
SMILES: COc1ccc(CCNCc2nc(Cc3ccccc3)n(-c3ccc(S(N)(=O)=O)cc3F)n2)cc1 [Example T-62, 4-[5-benzyl-3-({[2-(4-methoxyphenyl)ethyl]amino}methyl)-1H-124-triazol-1-yl]-3-fluorobenzenesulfonamide]

- inhibition at 0.0025 µM [2]: 41%
SMILES: CCOc1ccccc1CNCc1nc(Cc2ccccc2)n(-c2ccc(S(N)(=O)=O)cc2F)n1 [Example T-63, 4-(5-benzyl-3-{[(2-ethoxybenzyl)amino]methyl}-1H-124-triazol-1-yl)-3-fluorobenzenesulfonamide]

- inhibition at 0.0025 µM [2]: 47%
SMILES: NS(=O)(=O)c1ccc(-n2nc(CNCCOc3ccccc3)nc2Cc2ccccc2)c(F)c1 [Example T-64, 4-(5-benzyl-3-{[(2-phenoxyethyl)amino]methyl}-1H-124-triazol-1-yl)-3-fluorobenzenesulfonamide]

- inhibition at 0.0025 µM [2]: 58%
SMILES: C[C@@H](NCc1nc(Cc2ccccc2)n(-c2ccc(S(N)(=O)=O)cc2F)n1)c1ccccc1 [Example T-65]

- inhibition at 0.0025 µM [2]: 47%
SMILES: NS(=O)(=O)c1ccc(-n2nc(CN[C@@H]3C[C@H]4CC[C@@H]3C4)nc2Cc2ccccc2)c(F)c1 [Example T-67]

- inhibition at 0.0025 µM [2]: 68%
SMILES: NS(=O)(=O)c1ccc(-n2nc(CNC3CCCCC3)nc2Cc2ccccc2)c(F)c1 [Example T-69, 4-{5-benzyl-3-[(cyclohexylamino)methyl]-1H-124-triazol-1-yl}-3-fluorobenzenesulfonamide]

- inhibition at 0.0025 µM [2]: 70%
SMILES: CC(Cn1cccn1)NCc1nc(Cc2ccccc2)n(-c2ccc(S(N)(=O)=O)cc2F)n1 (stereo not drawn) [Example T-72, 4-[5-benzyl-3-({[1-methyl-2-(1H-pyrazol-1-yl)ethyl]amino}methyl)-1H-124-triazol-1-yl]-3-fluorobenzenesulfonamide]

- inhibition at 0.0025 µM [2]: 45%
SMILES: NS(=O)(=O)c1ccc(-n2nc(CNCc3ccccc3F)nc2Cc2ccccc2)c(F)c1 [Example T-74, 4-(5-benzyl-3-{[(2-fluorobenzyl)amino]methyl}-1H-124-triazol-1-yl)-3-fluorobenzenesulfonamide]

- inhibition at 0.0025 µM [2]: 51%
SMILES: CCC(NCc1nc(Cc2ccccc2)n(-c2ccc(S(N)(=O)=O)cc2F)n1)c1ccccc1 (stereo not drawn) [Example T-75, 4-(5-benzyl-3-{[(1-phenylpropyl)amino]methyl}-1H-124-triazol-1-yl)-3-fluorobenzenesulfonamide]

- inhibition at 0.0025 µM [2]: 50%
SMILES: NS(=O)(=O)c1ccc(-n2nc(CN[C@@H]3COC[C@@H]3C3CC3)nc2Cc2ccccc2)c(F)c1 [Example T-77, 4-[5-benzyl-3-({[(3S4R)-4-cyclopropyltetrahydrofuran-3-yl]amino}methyl)-1H-124-triazol-1-yl]-3-fluorobenzenesulfonamide]

- inhibition at 0.0025 µM [2]: 71%
SMILES: Cc1cccc(CC(C)NCc2nc(Cc3ccccc3)n(-c3ccc(S(N)(=O)=O)cc3F)n2)n1 (stereo not drawn) [Example T-78, 4-[5-benzyl-3-({[1-methyl-2-(6-methylpyridin-2-yl)ethyl]amino}methyl)-1H-124-triazol-1-yl]-3-fluorobenzenesulfonamide]

- inhibition at 0.0025 µM [2]: 73%
SMILES: COC[C@H](C)NCc1nc(Cc2ccccc2)n(-c2ccc(S(N)(=O)=O)cc2F)n1 [Example T-80, 4-[5-benzyl-3-({[(1S)-2-methoxy-1-methylethyl]amino}methyl)-1H-124-triazol-1-yl]-3-fluorobenzenesulfonamide]
